pEC50, pIC50: −log10 of the molar value. Active and inactive are the calls of the source. The rule behind the calls is not given here.
Tests used:
[1] = tested on: Jurkat; experiment: Effective dose to inhibit FasL-induced apoptosis in Jurkat cells (Type II); NE=no effect; assay type: functional, cell-based; conditions: Homo sapiens
[2] = tested on: Jurkat; experiment: Effective dose to inhibit staurosporine-induced apoptosis in Jurkat cells (Type II); NE=no effect; assay type: functional, cell-based; conditions: Homo sapiens
[3] = tested on: Jurkat; experiment: Cytotoxicity against Jurkat cell growth (Type II); assay type: functional, cell-based; conditions: Homo sapiens
[4] = tested on: SKW 6.4; experiment: Effective dose to inhibit FasL-induced apoptosis in SK W6.4 cells (Type I); NE=no effect; assay type: functional, cell-based; conditions: Homo sapiens
[5] = tested on: SKW 6.4; experiment: Effective dose to inhibit staurosporine-induced apoptosis in SK W6.4 cells (Type I); NE=no effect; assay type: functional, cell-based; conditions: Homo sapiens
[6] = tested on: SKW 6.4; experiment: Cytotoxicity against SK W6.4 cell growth (Type I); assay type: functional, cell-based; conditions: Homo sapiens
[7] = tested on: SKW 6.4; experiment: Effective dose to inhibit FasL-induced apoptosis in SK W6.4 cells (Type I); assay type: functional; conditions: Homo sapiens, read-out: ED50 (the source's name)
[8] = tested on: Jurkat; experiment: Effective dose to inhibit staurosporine-induced apoptosis in Jurkat cells (Type II); assay type: functional; conditions: Homo sapiens, read-out: ED50 (the source's name)
[9] = tested on: SKW 6.4; experiment: Effective dose to inhibit staurosporine-induced apoptosis in SK W6.4 cells (Type I); assay type: functional; conditions: Homo sapiens, read-out: ED50 (the source's name)
[10] = tested on: Jurkat; experiment: Effective dose to inhibit FasL-induced apoptosis in Jurkat cells (Type II); assay type: functional; conditions: Homo sapiens, read-out: ED50 (the source's name)

Compound | pEC50 [7] | pEC50 [8] | pEC50 [9] | pEC50 [10] | ED50 [1] | ED50 [2] | pIC50 [3] | ED50 [4] | ED50 [5] | pIC50 [6]
O=C1C(/C=C/c2ccccc2)=C(CO)[C@H](O)[C@H]2O[C@@H]12 |  |  |  |  | inactive | inactive | 4.70 | inactive | inactive | 4.52
C/C=C/C1=C(CO)[C@@H](O)[C@@H]2O[C@@H]2C1=O | 4.70 | < 4.10 | < 4.10 | 4.60 |  |  | 4.22 |  |  | 4.10
CCCC/C=C/C1=C(CO)C(=O)[C@H]2O[C@H]2C1=O |  |  |  |  | inactive | inactive | 5.00 | inactive | inactive | 5.15
C/C=C/C1=C(CO)C(=O)[C@H]2O[C@H]2C1=O |  |  |  |  | inactive | inactive | 5.10 | inactive | inactive | 5.05
C/C=C/C1=C(CO)[C@H](O)[C@H]2O[C@H]2C1=O | 5.30 | < 4.10 | < 4.10 | 5.22 |  |  | < 4.10 |  |  | < 4.10

Continued by rising pEC50 [7], values first:

pEC50 [7] | pEC50 [8] | pEC50 [9] | pEC50 [10] | Compound | ED50 [1] | ED50 [2] | pIC50 [3] | ED50 [4] | ED50 [5] | pIC50 [6]
4.70 | < 4.10 | < 4.10 | 4.60 | C/C=C/C1=C(CO)[C@H](OC)[C@H]2O[C@H]2C1=O |  |  | < 4.10 |  |  | < 4.10
5.00 |  |  |  | CCCC/C=C/C1=C(CO)[C@H](O)[C@H]2O[C@H]2C1=O | inactive | inactive | 4.82 |  | inactive | 4.46
5.00 | < 4.10 | < 4.10 | 5.00 | C/C=C(\C)C1=C(CO)[C@H](O)[C@H]2O[C@H]2C1=O |  |  | < 4.10 |  |  | < 4.10
5.00 | < 4.10 | < 4.10 | 4.74 | O=C1C=C(CO)[C@H](O)[C@H]2O[C@@H]12 |  |  | < 4.10 |  |  | < 4.10
5.40 | < 4.10 | < 4.10 | 5.22 | C=CC1=C(CO)[C@H](O)[C@H]2O[C@H]2C1=O |  |  | < 4.10 |  |  | < 4.10

— ChEMBL document CHEMBL1136833, “Novel non-peptide inhibitors targeting death receptor-mediated apoptosis” (Bioorg Med Chem Lett, 2003)
